{
  "source": "patent US12275684B2",
  "about": "“Methods for making and using endoxifen” (Atossa Therapeutics, Inc., priority 2017, dated 2025)",
  "key": {"[1]": {"settings": "cited from earlier work; for predicted t90 for 10% conversion to (E)-endoxifen: solid state"}, "[2]": {"assay": "Placebo controlled, dose escalation pharmacokinetic study of oral (Z)-Endoxifen capsules (serum endoxifen; incl. accumulation ratios and dose linearity)", "type": "in vivo, human", "text": "An objective of the study was to assess the safety and tolerability of oral (Z)-Endoxifen when administered […] orally as a capsule to healthy female volunteers. A secondary objective was to assess the pharmacokinetics of multiple doses of oral (Z)-Endoxifen in the subjects.\nGenerally, healthy female volunteers aged ≥18 years and ≤65 years were enrolled. 24 participants were enrolled in 3 cohorts and will be administered study drug orally. Three dose levels of orally administered (Z)-Endoxifen were investigated in 3 cohorts. In each cohort participants were randomized to receive an oral (Z)-Endoxifen or placebo in a blinded fashion. Enteric-resistant capsules used in the study were designed as delayed release capsules to resist rupture for at least 30 minutes, but typically, for about 2 hours, under gastric conditions and then open fully in intestinal fluid (DRCaps; Capsugel, a Lonza Company, USA). Enteric-resistant (Swedish Orange size Zero (0); Capsugel, USA) DRCaps capsules manually filled with 1, 2 or 4 mg of (Z)-endoxifen neat in compliance with GMP requirements were used. Placebo capsules contained microcrystalline cellulose an inert common capsule and tablet excipient.\nEach cohort enrolled 8 participants, with 6 participants receiving (Z)-Endoxifen 1 mg capsules orally at 1 mg (Cohort 1), 2 mg (Cohort 2) or 4 mg (Cohort 3) doses and 2 participants receiving matching placebo capsules. In Cohort 1 (Dose Level=1 mg) two participants (sentinels) were dosed 24 hours prior to the remaining participants. One sentinel was dosed with (Z)-Endoxifen and the other with placebo. The remaining six participants in Cohort 1 were dosed as no safety concerns were identified in the sentinel participants. The non-sentinel participants in Cohort 1 were admitted to the clinical research facility at least one day later than the sentinels. There were no sentinels in Cohorts 2 and 3.\nParticipant engagement in this study was for a period of 56 days. These included a 28 day screening period, and a 7 day post treatment period for Pharmacokinetic (PK) sampling. There were two confinement periods, one at the beginning and one at the end of the dosing periods. Participants were confined to the clinical facility on Days-1 through to Day 2 and Days 21 and 22. If participants were to experience any clinically significant adverse events during the study, they would have been required to remain in the clinical facility for further observation at the discretion of the Principal Investigator (PI).\nHealthy female volunteers were screened within 28 days prior to commencement of dosing. Participants were admitted to the clinical facility on Day-1 for up to 3 days. The first dose of (Z)-Endoxifen or placebo capsules was administered on Day 1. Following completion of all safety assessments and sampling for PK analyses, participants were discharged from the clinical facility on Day 2. The first dose on Day 1 was followed by a 6-day treatment free period (Days 2-7). Each participant returned to the clinical facility for PK blood draws and safety assessments during the treatment free period on study Days 4 and 6. On Day 8 participants commenced daily administration of (Z)-Endoxifen capsules or placebo capsules for 14 consecutive days (Days 8-21). Participants were supplied with study drug capsules and asked to self administer daily. Participants visited the clinical facility on Days 11, 14 and 17, prior to dose administration, for PK blood draws and safety assessments. On the morning of Day 21 each participant returned to the clinical facility prior to dose administration and were confined to the facility until Day 22 to allow for the collection of PK blood draws and safety assessments. The Day 21 dose was the last administration of study drug. Participants were discharged from the clinical facility on Day 22 and returned for PK blood draws and safety assessments on study Days 24, 26, and 28. […]"}, "[3]": {"settings": "cited from earlier work"}},
  "note": "Where two headings read alike, the source gives them in different places.",
  "data": [
    {"smiles": "CC/C(=C(\\c1ccc(O)cc1)c1ccc(OCCNC)cc1)c1ccccc1.Cl", "note": "[(Z)-endoxifen HCl]", "values": [
      {"measurement": "t90", "setting": "[1]; aqueous medium, 45° C.", "result": 9, "unit": "days"},
      {"measurement": "predicted t90 for 10% conversion to (E)-endoxifen", "setting": "[1]; 25° C./60% RH", "result": 53, "unit": "months"},
      {"measurement": "predicted t90 for 10% conversion to (E)-endoxifen", "setting": "[1]; 40° C./75% RH", "result": 4.3, "unit": "months"}
    ]},
    {"smiles": "CC/C(=C(\\c1ccc(O)cc1)c1ccc(OCCNC)cc1)c1ccccc1", "note": "[Endoxifen]", "values": [
      {"measurement": "dose linearity β Estimate", "setting": "[2]; AUC24 hr (log), Day 1", "result": 0.873},
      {"measurement": "dose linearity β Estimate", "setting": "[2]; AUC24 hr (log), Day 21", "result": 1.008},
      {"measurement": "dose linearity β Estimate", "setting": "[2]; Cmax (log), Day 1", "result": 0.808},
      {"measurement": "dose linearity β Estimate", "setting": "[2]; Cmax (log), Day 21", "result": 1.055}
    ]},
    {"smiles": "CC/C(=C(\\c1ccccc1)c1ccc(OCCN(C)C)cc1)c1ccccc1", "note": "[tamoxifen, (Z)-2-[4-(1,2-diphenyl-1-butenyl)phenoxy]-N,N-dimethylethanamine]", "values": [
      {"measurement": "Terminal elimination half life", "setting": "[3]; in vivo", "result": "120 to 170", "unit": "h"},
      {"measurement": "peak concentration time", "setting": "[3]; post-dose", "result": "approximately 5 hours"}
    ]}
  ]
}
